Usually Ki stands for the equilibrium dissociation constant of an inhibitor or competing ligand from its target. Low values mean higher affinity, high ones lower affinity.

Test [1] deals with Epithelial discoidin domain-containing receptor 1 (Homo sapiens, UniProt Q08345). The test can be described thus: Binding Assays. The procedure:
(§1) DDR1 and DDR2 binding assays were performed using Life Technologies LanthaScreen™ Europium Kinase Binding assay. The compounds were incubated with 5 nM DDR1 (Carna Biosciences) or 5 nM DDR2 (Life Technologies) for 1 h at rt in white 384-well OptiPlate (PerkinElmer), containing 20 nM or 10 nM Kinase Tracer 178 respectively and 2 nM Europium labelled anti-GST antibody (Life Technologies) in assay buffer (50 mM HEPES pH 7.5, 10 mM MgCI2, 1 mM EGTA and 0.01% BRIJ35). The ratio of fluorescence emission 665 nm/615 nm after excitation at 340 nm was obtained using the Tecan Spark 20M plate reader. IC50 values were determined in GraphPad Prism 7.0 software, using 4 parameter model: log(inhibitor) vs. response. IC50 values were converted in Ki using the Cheng-Prusoff equation (Ki=IC50/(1+[Tracer]/Kd).

The target of test [2] is T1, Discoidin domain-containing receptor 2 (Homo sapiens, UniProt Q16832).
T1 sequence (Q16832 whole entry): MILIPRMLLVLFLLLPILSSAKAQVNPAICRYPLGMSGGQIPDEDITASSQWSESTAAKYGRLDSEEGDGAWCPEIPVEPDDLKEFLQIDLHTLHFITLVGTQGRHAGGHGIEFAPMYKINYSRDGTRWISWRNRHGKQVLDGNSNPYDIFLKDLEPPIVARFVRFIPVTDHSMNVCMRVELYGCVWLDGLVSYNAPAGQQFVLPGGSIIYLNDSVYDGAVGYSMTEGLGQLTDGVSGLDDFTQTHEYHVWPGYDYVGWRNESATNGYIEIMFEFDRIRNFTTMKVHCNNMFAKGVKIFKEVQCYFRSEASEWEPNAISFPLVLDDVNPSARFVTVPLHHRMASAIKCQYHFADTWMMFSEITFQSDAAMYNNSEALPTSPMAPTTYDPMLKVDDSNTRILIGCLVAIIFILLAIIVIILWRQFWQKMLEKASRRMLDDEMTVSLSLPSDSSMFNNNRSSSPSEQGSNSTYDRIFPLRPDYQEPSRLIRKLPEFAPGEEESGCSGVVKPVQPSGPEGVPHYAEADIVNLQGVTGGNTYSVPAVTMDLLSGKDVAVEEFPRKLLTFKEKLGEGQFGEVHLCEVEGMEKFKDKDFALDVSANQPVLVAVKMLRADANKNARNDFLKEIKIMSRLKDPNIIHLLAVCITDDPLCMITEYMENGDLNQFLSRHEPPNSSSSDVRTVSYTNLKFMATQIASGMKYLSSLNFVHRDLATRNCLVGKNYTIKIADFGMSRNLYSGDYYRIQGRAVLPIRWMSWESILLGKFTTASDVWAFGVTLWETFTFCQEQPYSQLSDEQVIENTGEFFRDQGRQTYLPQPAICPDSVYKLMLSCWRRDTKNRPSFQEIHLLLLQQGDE
The test can be described thus: Binding Assays. On the procedure:
as §1

Chain of Epithelial discoidin domain-containing receptor 1 (Q08345 whole entry, the tested form may be a part): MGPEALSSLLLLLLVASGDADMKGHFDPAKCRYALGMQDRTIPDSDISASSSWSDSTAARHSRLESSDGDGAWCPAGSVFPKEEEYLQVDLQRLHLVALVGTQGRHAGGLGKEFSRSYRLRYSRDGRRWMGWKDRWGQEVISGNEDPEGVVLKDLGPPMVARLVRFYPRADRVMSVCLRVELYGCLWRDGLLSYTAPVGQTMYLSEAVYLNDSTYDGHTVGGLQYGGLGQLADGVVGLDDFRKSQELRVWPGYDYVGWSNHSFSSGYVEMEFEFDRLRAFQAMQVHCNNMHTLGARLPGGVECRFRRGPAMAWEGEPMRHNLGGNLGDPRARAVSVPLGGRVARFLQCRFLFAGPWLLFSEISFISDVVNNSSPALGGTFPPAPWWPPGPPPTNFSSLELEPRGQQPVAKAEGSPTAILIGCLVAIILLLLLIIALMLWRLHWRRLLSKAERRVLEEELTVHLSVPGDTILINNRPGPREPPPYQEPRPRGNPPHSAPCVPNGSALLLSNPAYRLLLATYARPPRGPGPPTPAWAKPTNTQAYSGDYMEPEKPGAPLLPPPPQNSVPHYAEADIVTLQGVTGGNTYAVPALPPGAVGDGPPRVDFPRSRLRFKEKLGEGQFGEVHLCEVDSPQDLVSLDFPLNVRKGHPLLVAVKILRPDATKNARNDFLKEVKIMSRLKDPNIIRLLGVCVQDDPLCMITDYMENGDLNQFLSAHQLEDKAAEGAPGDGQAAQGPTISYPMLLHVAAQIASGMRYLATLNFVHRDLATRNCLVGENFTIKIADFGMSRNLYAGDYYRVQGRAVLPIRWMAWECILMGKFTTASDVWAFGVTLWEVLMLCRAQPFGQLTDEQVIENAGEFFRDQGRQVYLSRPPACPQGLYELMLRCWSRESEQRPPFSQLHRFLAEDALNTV

As for `Cc1ccc(C(=O)Nc2cncc(C(F)(F)F)c2)cc1SC1CN(c2cncnc2)C1` [US20260028328, Example 177], the results for the Ki in test [1] and in test [2] were 5 to 25 nM and 25 to 100 nM, respectively. On to `Cc1ccc(C(=O)Nc2cncc(C(F)(F)F)c2)cc1OC1CN(c2cncc(C(N)=O)c2)C1` [US20260028328, Example 139], for which the inhibitory constant (Ki) in test [1] was less than 5 nM.

The record behind these values is BindingDB's records for patent US20260028328 (Chiesi Farmaceutici, 2026).
